{
  "source": "patent US20240308960A1",
  "about": "(Sumitomo Pharma Co., Ltd., priority 2021, published 2024)",
  "data": [
    {"molecular_target": "T1, Human orexin receptor type 2 (Homo sapiens, UniProt O43614)", "T1 sequence (O43614 1-444)": "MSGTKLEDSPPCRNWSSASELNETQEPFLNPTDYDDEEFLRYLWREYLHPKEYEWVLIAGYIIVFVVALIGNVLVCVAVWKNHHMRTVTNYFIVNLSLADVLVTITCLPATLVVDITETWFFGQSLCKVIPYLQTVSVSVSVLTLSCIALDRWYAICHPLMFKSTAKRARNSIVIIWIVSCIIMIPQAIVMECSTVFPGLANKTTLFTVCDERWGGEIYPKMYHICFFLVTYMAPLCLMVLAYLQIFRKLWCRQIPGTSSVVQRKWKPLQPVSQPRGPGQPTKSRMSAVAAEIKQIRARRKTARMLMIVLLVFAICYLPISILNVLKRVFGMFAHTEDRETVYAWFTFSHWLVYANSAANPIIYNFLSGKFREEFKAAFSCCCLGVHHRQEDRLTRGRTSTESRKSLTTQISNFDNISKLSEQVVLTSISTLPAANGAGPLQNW", "assay": "Test Example 1: agonist activity for orexin receptor type 2 (aequorin luminescence, intracellular calcium mobilization)", "conditions": "compound 10 μm; CHO cells transiently expressing human orexin receptor type 2 and apoaequorin; relative percentage of luminescence for the luminescence (100%) of Orexin A (100 μM)", "units": {"Agonist Activity (%)": "%"}, "values": [
      {"smiles": "Cc1ccc(C2CCN(C(=O)Nc3c(F)cccc3N3CCN(C(C)C)CC3)CC2)cc1", "note": "[Example 9, N-{2-fluoro-6-[4-(propan-2-yl)piperazin-1-yl]phenyl}-4-(4-methylphenyl)piperidine-1-carboxamide]", "Agonist Activity (%)": 132},
      {"smiles": "CC(C)N1CCN(c2cccc(Cl)c2NC(=O)N2CCC(C)(c3noc([C@@H]4C[C@@H]4C)n3)CC2)CC1", "note": "[Example 118, N-{2-chloro-6-[4-(propan-2-yl)piperazin-1-yl]phenyl}-4-methyl-4-{5-[(1R,2S)-2-methylcyclopropyl]-1,2,4-oxadiazol-3-yl}piperidine-1-carboxamide]", "Agonist Activity (%)": 149},
      {"smiles": "COc1cccc(C2=CCN(C(C)C)CC2)c1NC(=O)N1CCC(c2ccc(C)cc2)CC1", "note": "[Example 47, N-{2-methoxy-6-[1-(propan-2-yl)-1,2,3,6-tetrahydropyridin-4-yl]phenyl}-4-(4-methylphenyl)piperidine-1-carboxamide]", "Agonist Activity (%)": 165},
      {"smiles": "CCN1C[C@@H]2C[C@H]1CN2c1cccc(F)c1NC(=O)N1CCC(C)(c2noc(C3CC3)n2)CC1", "note": "[Example 149, 4-(5-cyclopropyl-1,2,4-oxadiazol-3-yl)-N-{2-[(1S,4S)-5-ethyl-2,5-diazabicyclo[2.2.1]heptan-2-yl]-6-fluorophenyl}-4-methylpiperidine-1-carboxamide]", "Agonist Activity (%)": 146},
      {"smiles": "Cc1nnc(C2(C)CCN(C(=O)Nc3ccccc3N3CCN(C(C)C)CC3)CC2)o1", "note": "[Example 165, 4-Methyl-4-(5-methyl-1,3,4-oxadiazol-2-yl)-N-{2-[4-(propan-2-yl)piperazin-1-yl]phenyl}piperidine-1-carboxamide]", "Agonist Activity (%)": 96},
      {"smiles": "CCN1CCN(c2ccccc2NC(=O)N2CCC(c3ccc(OC)cc3)CC2)CC1", "note": "[Example 1, N-[2-(4-Ethylpiperazin-1-yl)phenyl]-4-(4-methoxyphenyl)piperidine-1-carboxamide]", "Agonist Activity (%)": 77},
      {"smiles": "Cc1ccc(C2CCN(C(=O)Nc3c(F)cccc3N3CC4CCC(C3)N4C(C)C)CC2)cc1", "note": "[Example 154, N-{2-fluoro-6-[8-(propan-2-yl)-3,8-diazabicyclo[3.2.1]octan-3-yl]phenyl}-4-(4-methylphenyl)piperidine-1-carboxamide]", "Agonist Activity (%)": 40},
      {"smiles": "Cc1ccc(C2CCN(C(=O)Nc3c(Cl)cccc3N3CCN(C(C)C)CC3)CC2)cc1", "note": "[Example 35, N-{2-chloro-6-[4-(propan-2-yl)piperazin-1-yl]phenyl}-4-(4-methylphenyl)piperidine-1-carboxamide]", "Agonist Activity (%)": 163},
      {"smiles": "CC(C)N1CCN(c2cccc(F)c2NC(=O)N2CCC(C)(c3cc(C4CC4)on3)CC2)CC1", "note": "[Example 54, 4-(5-cyclopropyl-1,2-oxazol-3-yl)-N-{2-fluoro-6-[4-(propan-2-yl)piperazin-1-yl]phenyl}-4-methylpiperidine-1-carboxamide]", "Agonist Activity (%)": 140},
      {"smiles": "CC(C)N1CCN(c2cccc(F)c2NC(=O)N2CCC(C)(C3CCCC3)CC2)CC1", "note": "[Example 91, 4-cyclopentyl-N-{2-fluoro-6-[4-(propan-2-yl)piperazin-1-yl]phenyl}-4-methylpiperidine-1-carboxamide]", "Agonist Activity (%)": 195},
      {"smiles": "Cc1ccc(C2CCN(C(=O)Nc3c(F)cccc3C3=CCN(C(CF)CF)CC3)CC2)cc1", "note": "[Example 136, N-{2-[1-(1,3-difluoropropan-2-yl)-1,2,3,6-tetrahydropyridin-4-yl]-6-fluorophenyl}-4-(4-methylphenyl)piperidine-1-carboxamide]", "Agonist Activity (%)": 105},
      {"smiles": "CCN1CCCN(c2ccccc2NC(=O)N2CCC(c3ccc(C)cc3)CC2)CC1", "note": "[Example 153, N-[2-(4-ethyl-1,4-diazepan-1-yl)phenyl]-4-(4-methylphenyl)piperidine-1-carboxamide]", "Agonist Activity (%)": 54},
      {"smiles": "Cc1ccc(C2CCN(C(=O)Nc3c(F)cccc3C3=CCN(C)C3)CC2)cc1", "note": "[Example 140, N-[2-fluoro-6-(1-methyl-2,5-dihydro-1H-pyrrol-3-yl)phenyl]-4-(4-methylphenyl)piperidine-1-carboxamide]", "Agonist Activity (%)": 75},
      {"smiles": "CCN1CCCN(c2ccccc2NC(=O)N2CCC(C)(c3noc(C4CC4)n3)CC2)CC1", "note": "[Example 156, 4-(5-cyclopropyl-1,2,4-oxadiazol-3-yl)-N-[2-(4-ethyl-1,4-diazepan-1-yl)phenyl]-4-methylpiperidine-1-carboxamide]", "Agonist Activity (%)": 38},
      {"smiles": "Cc1ccc(C2CCN(C(=O)Nc3c(F)cccc3C3=CCN(C(C)C(F)F)CC3)CC2)cc1", "note": "(centres unmarked) [Example 135, N-{2-[1-(1,1-difluoropropan-2-yl)-1,2,3,6-tetrahydropyridin-4-yl]-6-fluorophenyl}-4-(4-methylphenyl)piperidine-1-carboxamide]", "Agonist Activity (%)": 103}
    ]},
    {"molecular_target": "T1, Human orexin receptor type 2", "assay": "Test Example 2: agonist activity for orexin receptor type 2 (aequorin luminescence, intracellular calcium mobilization)", "type": "cell-based", "set-up": "expressed in transfected cells; host or cells: CHO cells (transient expression)", "conditions": "compound 10 μm; CHO cells transiently expressing human orexin receptor type 2 and apoaequorin; relative percentage of luminescence for the luminescence (100%) of Orexin A (100 pM)", "experimental": "Test Example 2: Measurement of Agonist Activity for Orexin Receptor 2 Type\nHuman orexin receptor type 2 and apoaequorin were transiently expressed in CHO cells, and the agonist activity was evaluated based on intracellular calcium mobilization with ligand stimulation. The CHO cells transiently-expressed human orexin receptor type 2 and apoaequorin were seeded on a 384-well plate by 2,000 cells/well, and then incubated for 16-22 hours. After the plate was returned to room temperature, Coelenterazine hcp (final concentration: 1 μM) was added to the plate, and the plate was allowed to stand at room temperature for 2 hours. And then, Orexin A (PEPTIDE INSTITUTE, INC., Lot. 671009) or each test compound was added to the plate, and the luminescence of the cells was measured with FDSS7000 (Hamamatsu Photonics K. K.), wherein Orexin A and each test compound were dissolved in DMSO (final concentration: 0.1%), and diluted with a buffer (Hanks, 20 mM HEPES, 0.1% BSA).", "units": {"Agonist Activity (%)": "%"}, "values": [
      {"smiles": "CC(C)N1CCN(c2cccc(Cl)c2NC(=O)N2C[C@H]3C[C@@H](c4noc(C5CC5)n4)C[C@H]3C2)CC1", "note": "[Example 170, (3aR,5r,6aS)-N-{2-chloro-6-[4-(propan-2-yl)piperazin-1-yl]phenyl}-5-(5-cyclopropyl-1,2,4-oxadiazol-13-yl) hexahydrocyclopenta [c]pyrrol-2 (1H)-carboxamide]", "Agonist Activity (%)": 357},
      {"smiles": "CC(C)N1CCN(c2cccc(Cl)c2NC(=O)N2C[C@H]3C[C@H](c4noc(C5CC5)n4)C[C@H]3C2)CC1", "note": "[Example 169, (3aR,5s,6aS)-N-{2-chloro-6-[4-(propan-2-yl)piperazin-1-yl]phenyl}-5-(5-cyclopropyl-1,2,4-oxadiazol-13-yl) hexahydrocyclopenta [c]pyrrol-2 (1H)-carboxamide]", "Agonist Activity (%)": 444}
    ]}
  ]
}
